Four compounds from patent publication US9393222B2, “Use of HDAC and/or DNMT inhibitors for treatment of ischemic injury” (The Trustees of the University of Pennsylvania, priority 2004, dated 2016) can be followed below.

For experiment [1], the system named is myocardial ischemia-reperfusion injury. Briefly: Mouse myocardial ischemia-reperfusion (45 min LAD coronary artery occlusion, 24 h reperfusion), infarct size/area at risk. Type of experiment: in vivo, mice. As for the experimental part: Mice were injected with 5-aza-2′dC or saline, then subjected to ischemia. […] Both visual blanching and ST segment elevation on continuous ECG display confirmed myocardial ischemia. After 45 minutes, the PE-10 tubing was removed, permitting reperfusion. The sternotomy wound was closed in two layers with 4-0 Vicryl (Ethicon, Inc., Sommerville, N.J.) and the mouse extubated. 24 hours later, the mice were sacrificed, and infarcted and at-risk myocardial tissue was quantitated to determine infarct size.
The volume of viable myocardium remaining was determined by incubation of the tissue with 2% triphenyltetrazolium chloride: mice were euthanized by CO2 inhalation, the hearts were removed, and the aorta cannulated with a 21-gauge blunt-ended needle. Hearts were perfused with 3 ml of phosphate buffered saline solution, followed by 3 ml of 1% (2,3,5)-triphenyltetrazolium (TTC) at 37° C. The hearts were frozen at −80° C. for 20 minutes and cut into 1.5-mm slices. Each slice was individually weighed and photographed with incident light on both sides with a Leica DC200 CCD camera and MZ16 stereomicroscope (Leica Microsystems, Inc.) Infarct area was determined by visualizing TTC precipitate-excluded areas using NIH Image J software.
The volume of tissue at risk for ischemic injury (i.e. tissue lacking normal blood flow during the occlusion) was assessed by injection of the mice with FluoSphere 15-micron fluorescent microspheres (Molecular Probes/Invitrogen, Eugene, Oreg.) in the ascending aorta (clamped distally) after re-ligation of the left anterior descending coronary artery. The heart was sectioned, and fluorescence measured by cutting the tissue into 100 μm slices and determining the area of microsphere perfused cardiac tissue (perfused tissue) and the area excluded from microspheres (area at risk).
The volume of necrotic tissue was divided by the volume of tissue at risk for ischemic injury, to obtain the infarct size. Infarct size in the drug-treated groups was compared to the infarct size in the vehicle-treated group to determine the relative reduction in injury reported in the Table.
To ascertain the effect of DNMT inhibition on ischemic injury, mice were injected in the left ventricle with either the DNMT inhibitor 5-aza-2-deoxycytidine (5-aza-2′dC) or saline (negative control), then cardiac ischemia was induced by occlusion of the left anterior descending coronary artery for 45 minutes. The hearts were re-perfused for 24 hours, and the mice were sacrificed.
Mice were administered either the HDAC inhibitor TSA or vehicle (DMSO) alone, in the left ventricle. Ischemia was induced by occlusion of the left anterior descending coronary artery for 45 minutes, and mice were sacrificed following a 24-hour reperfusion period. The volume of infarcted and at-risk myocardial tissue was quantitated as described for Example 1.
To further characterize the effect of HDAC inhibitors and DNMT inhibitors on ischemic injury, a larger study was conducted, in which the HDAC inhibitor was added at several time points. In addition, a different HDAC inhibitor, Scriptaid (BioMol, Plymouth Meeting, Pa.), was tested, together with its corresponding negative control compound, Nullscript (Biomol). Ischemia was induced, and amounts of viable and necrotic tissue measured, as described for Example 1. A total of 217 mice were utilized in this Example, distributed as follows: Saline=38; DMSO=45; Nullscript=11; TSA-T1=31; TSA-T2=25; TSA-T3=15; Scriptaid=25; 5aza2′dC=27. […] In addition, HDAC inhibitors were effective when administered either before ischemia or 1 hour after ischemia.

In experiment [2] the test system is histone H3 acetylation (acetyl-Lys9 H3). Briefly: Histone acetylation in ischemic myocardium, acid/urea gel and anti-acetyl H3 Western blot. Type of experiment: in vivo, mice. As to conditions: pre-treatment (1 hour before ischemia). As for the experimental part:
Cells were lysed in Triton X/deoxycholate buffer (20 millimolar [mM] HEPES, pH 7.2, 1% Triton X-100, 1% sodium deoxycholate, 100 mM sodium chloride, 50 mM sodium fluoride, 5 mM EDTA, 100 μM sodium molybdate, with protease inhibitors), and insoluble material was removed by a 15 minute (min) centrifugation in a microfuge, and the supernatant was subjected to 100,000×g, […] centrifugation. The pellet was extracted with 9 M urea, and the resulting pellet extracted with 0.3 M HCl.
40 centimeter (cm) acetic acid/urea gels were prepared as follows: The separating gel (0.75 millimeter [mm] thick) contained 15% acrylamide/0.2% methylenebisacrylamide, 4 molar (M) urea, and 5% acetic acid. The stacking gel contained 7.5% acrylamide/0.1% methylenebisacrylamide, 8 M urea, and 5% acetic acid. Proteins were solubilized in sample buffer (8 M urea, 5% acetic acid, 5% 2-mercaptoethanol, 25 milligram per milliliter (mg/ml) protamine sulfate, with methyl green) and loaded onto gels that had been pre-electrophoresed to a constant current and scavenged with […] cysteamine (Sigma-Aldrich). […]
To determine the effect of ischemia and HDAC inhibitors on histone acetylation, ischemia was induced in mice, as described in Example 1, and the degree of histone acetylation in myocardium was determined Histone acetylation was reduced in response to ischemia (FIG. 1).

The mark [3] stands for this setting: T1: treatment 1 hour before ischemia.
[4] abbreviates: time of treatment not given in Table 3.
The mark [5] stands for this setting: T2: treatment 1 hour after ischemia.
The mark [6] stands for this setting: T3: treatment 12 hours after ischemia.

In the case of `O=C(CCCCCN1C(=O)c2cccc3cccc(c23)C1=O)NO` [Scriptaid], in experiment [1] (setting [3]), the “% decrease (w.r.t. DMSO)” value is 44.20% and the “Infarct size/area at risk (±SEM)” value is on record as 21.2% ± 0.33%.
As for `Nc1ncn([C@H]2C[C@H](O)[C@@H](CO)O2)c(=O)n1` [5-aza-2′dC, 5-aza-2-deoxycytidine], the “reduction of infarct size vs saline” value in experiment [1] (mice, injected in left ventricle before 45 min LAD occlusion, 24 h reperfusion) is listed as 69.6%. In experiment [1] (mice, injected in left ventricle before 45 min LAD occlusion, 24 h reperfusion (Table 1)), the “Ratio of infarct size/area at risk” value is recorded as 10.3%. In addition, in experiment [1] (setting [4]), the “% decrease (w.r.t. DMSO)” value came out at 71.40% and the “Infarct size/area at risk (±SEM)” value was 10.3% ± 0.03%.
Regarding `CC(/C=C/C(=O)NO)=C\[C@@H](C)C(=O)c1ccc(N(C)C)cc1` [TSA, trichostatin A], the “% decrease (w.r.t. DMSO)” value in experiment [1] (setting [3]) is listed as 48.30%; in experiment [1] (setting [5]), 55.60%; in experiment [1] (setting [6]), 8.30%. Besides, the “Infarct size/area at risk (±SEM)” value is listed as 18.6% ± 0.04% in experiment [1] (setting [3]), 16.0% ± 0.04% in experiment [1] (setting [5]) and 33.0% ± 0.05% in experiment [1] (setting [6]). For the same compound, the “reduction in infarct size vs DMSO vehicle” value in experiment [1] (mice, administered in left ventricle, 45 min LAD occlusion, 24 h reperfusion) is given as 48.3%. In addition, in experiment [1] (mice, administered in left ventricle, 45 min LAD occlusion, 24 h reperfusion (Table 2)), the “Ratio of infarct size/area at risk” value is listed as 18.6%. Besides, the “effect on ischemia-induced reduction in histone acetylation” value in experiment [2] is given as “partially prevented the reduction in histone acetylation”.
With `O=C(CCCN1C(=O)c2cccc3cccc(c23)C1=O)NO` [Nullscript], the “Infarct size/area at risk (±SEM)” value in experiment [1] (setting [4]) was 38.0% ± 0.56%.
